Literature values in patent US10143639B2, “Use of adelmidrol and other topical or oral cannabinomimetic or aliamide mast cell inhibitors to treat dermatoheliosis, seborrheic keratoses, and androgenetic alopecia” (priority 2017, dated 2018).

Experiments:
[1] = tested on: hair growth in mice; conditions: applied to the skin of mice
[2] = tested on: NGF
[3] = tested on: AGA patients; conditions: share of treated AGA patients improving
[4] = tested on: AGA scalp; conditions: topical application, especially in subjects already taking finasteride

CCCCC[C@H](O)/C=C/[C@H]1C(=O)C[C@H](O)[C@@H]1C/C=C\CCCC(=O)O [PGD2, Prostaglandin D2]
hair growth [1]: stopped hair growth

CCCCCCCCCCCCCCCC(=O)NCCO [PEA, palmitoylethanolamide]
pro-inflammatory effects of NGF [2]: turned off the pro-inflammatory effects of NGF

CC(C)(C)NC(=O)[C@H]1CC[C@H]2[C@@H]3CC[C@H]4NC(=O)C=C[C@]4(C)[C@H]3CC[C@]12C [finasteride]
clinical improvement in treated AGA patients [3]: 50-60%

CCCCC/C=C\C/C=C\CCCCCCCC(=O)O [linoleic acid]
hair growth [4]: improved hair growth
